Where two headings read alike, the source gives them in different places.
What was measured:
[1] = system: Pyricularia grisea f. sp. oryzae; type: in vivo; settings: Rice Blast
Botrytis cinera = assay: In vivo fungicidal activity, Pepper Botrytis (PB); further: ranges in brackets are in %
Venturia inaequalis = assay: In vivo fungicidal activity, Apple Scab (AS); further: ranges in brackets are in %
Alternara solani = assay: In vivo fungicidal activity, Tomato early blight (TEB); further: ranges in brackets are in %
Plasmopara viticola = assay: In vivo fungicidal activity, Grape downy mildew (GDM); further: ranges in brackets are in %
Blumeria graminis = assay: In vivo fungicidal activity, Wheat powdery mildew (WPM); further: ranges in brackets are in %
Pythium ultimum = assay: In vitro fungicidal activity, Fruit rot (PYTHUL); type: cell-based; parameters: key: 0: None; 3: slight; 5: moderate; 7: severe; 9: complete; settings: 3-7 days of incubation
Method: (§1) Test compounds are dissolved in acetone to give concentrations of 25, 10 and 1 ppm and are added to individual cell Walls (24-cell-well plates, Corning), which were previously filled with a suspension of ground plates, Corning), which were previously filled with a suspension of ground fungal mycelium in a chemically defined growth medium. After 3-7 days of incubation, inhibition of […] growth is recorded using the following scale: The data obtained are shown in Table II. [table]

Rhizoctonia solani = assay: In vitro fungicidal activity, Rice sheath blight (RHIZSO); type: cell-based; parameters: key: 0: None; 3: slight; 5: moderate; 7: severe; 9: complete; settings: 3-7 days of incubation
Method: as §1

[2] = system: Pseudocercosporella herpotrichoides; assay: In vitro fungicidal activity, Cereal eye spot (PSDCHE); type: cell-based; parameters: key: 0: None; 3: slight; 5: moderate; 7: severe; 9: complete; settings: 3-7 days of incubation
Method: as §1

Row | Structure (SMILES) | RB disease control rating ([1]; 12.5 ppm spray) | RB disease control rating ([1]; 50 ppm spray) | RB disease control rating ([1]; 200 ppm spray) | PB disease control rating (Botrytis cinera; 12.5 ppm spray) | PB disease control rating (Botrytis cinera; 50 ppm spray) | PB disease control rating (Botrytis cinera; 200 ppm spray) | AS disease control rating (Venturia inaequalis; 12.5 ppm spray) | AS disease control rating (Venturia inaequalis; 50 ppm spray) | AS disease control rating (Venturia inaequalis; 200 ppm spray) | TEB disease control rating (Alternara solani; 12.5 ppm spray) | TEB disease control rating (Alternara solani; 50 ppm spray) | TEB disease control rating (Alternara solani; 200 ppm spray) | GDM disease control rating (Plasmopara viticola; 12.5 ppm spray) | GDM disease control rating (Plasmopara viticola; 50 ppm spray) | GDM disease control rating (Plasmopara viticola; 200 ppm spray) | WPM disease control rating (Blumeria graminis; 12.5 ppm spray) | WPM disease control rating (Blumeria graminis; 50 ppm spray) | WPM disease control rating (Blumeria graminis; 200 ppm spray) | PYTHU inhibition of mycelial growth rating (Pythium ultimum; 1 ppm) | PYTHU inhibition of mycelial growth rating (Pythium ultimum; 10 ppm) | other results
1 | COc1cc(F)c(-c2c(Cl)nc3n(C)cnn3c2=NC(C)C(F)(F)F)c(F)c1 (centres unmarked) [Example 13] | 0 (0) | 0 (0) | 0 (0) | 0 (0) | 0 (0) | 0 (0) | 0 (0) | 0 (0) | 0 (0) | 0 (0) | 0 (0) | 0 (0) | 0 (0) | 0 (0) | 0 (0) | 0 (0) | 3 (30-44) | 5 (60-74) | – | – | –
2 | CC(N=c1c(-c2c(F)cccc2F)c(Cl)nc2n(C)cnn12)C(F)(F)F (centres unmarked) [Example 14] | 0 (0) | 0 (0) | 0 (0) | 0 (0) | 0 (0) | 0 (0) | 0 (0) | 0 (0) | 6 (75-89) | 0 (0) | 0 (0) | 0 (0) | 0 (0) | 4 (45-59) | 7 (90-95) | 0 (0) | 0 (0) | 0 (0) | – | – | –
3 | CC(N=c1c(-c2ccccc2Cl)c(Cl)nc2n(C)cnn12)C(F)(F)F (centres unmarked) [Example 15] | 0 (0) | 0 (0) | 0 (0) | 0 (0) | 0 (0) | 2 (15-29) | 0 (0) | 0 (0) | 0 (0) | 0 (0) | 0 (0) | 0 (0) | 2 (15-29) | 4 (45-59) | 6 (75-89) | 0 (0) | 0 (0) | 3 (30-44) | 0 | 0 | PYTHU inhibition of mycelial growth rating (Pythium ultimum; 25 ppm): 0; RHIZSO inhibition of mycelial growth rating (Rhizoctonia solani; 1 ppm): 0; RHIZSO inhibition of mycelial growth rating (Rhizoctonia solani; 10 ppm): 0; RHIZSO inhibition of mycelial growth rating (Rhizoctonia solani; 25 ppm): 3; PSDCH inhibition of mycelial growth rating ([2]; 1 ppm): 0; PSDCH inhibition of mycelial growth rating ([2]; 10 ppm): 0; PSDCH inhibition of mycelial growth rating ([2]; 25 ppm): 0
4 | CC(N=c1c(-c2ccc(F)cc2F)c(Cl)nc2n(C)cnn12)C(F)(F)F (centres unmarked) [Example 16] | 0 (0) | 0 (0) | 0 (0) | 0 (0) | 0 (0) | 0 (0) | 0 (0) | 5 (60-74) | 6 (75-89) | 0 (0) | 0 (0) | 0 (0) | – | 5 (60-74) | 7 (90-95) | 0 (0) | 0 (0) | 0 (0) | 0 | 5 | PYTHU inhibition of mycelial growth rating (Pythium ultimum; 25 ppm): 7; RHIZSO inhibition of mycelial growth rating (Rhizoctonia solani; 1 ppm): 5; RHIZSO inhibition of mycelial growth rating (Rhizoctonia solani; 10 ppm): 7; RHIZSO inhibition of mycelial growth rating (Rhizoctonia solani; 25 ppm): 7; PSDCH inhibition of mycelial growth rating ([2]; 1 ppm): 0; PSDCH inhibition of mycelial growth rating ([2]; 10 ppm): 0; PSDCH inhibition of mycelial growth rating ([2]; 25 ppm): 0
